Test results reported in ChEMBL document CHEMBL5034035, “Discovery of an Oxycyclohexyl Acid Lysophosphatidic Acid Receptor 1 (LPA1) Antagonist BMS-986278 for the Treatment of Pulmonary Fibrotic Diseases” (J Med Chem, 2021).

How the values were obtained:
[1] = Drug concentration in po dosed monkey plasma assessed as concentration of parent compound; type: ADME, organism-based, Macaca mulatta; settings: rhesus monkey, in vivo
[2] = biological target: T1, Solute carrier organic anion transporter family member 1B1 (Homo sapiens, UniProt Q9Y6L6); test: Inhibition of OATP1B1 (unknown origin); type: ADME
T1 sequence (Q9Y6L6 whole entry): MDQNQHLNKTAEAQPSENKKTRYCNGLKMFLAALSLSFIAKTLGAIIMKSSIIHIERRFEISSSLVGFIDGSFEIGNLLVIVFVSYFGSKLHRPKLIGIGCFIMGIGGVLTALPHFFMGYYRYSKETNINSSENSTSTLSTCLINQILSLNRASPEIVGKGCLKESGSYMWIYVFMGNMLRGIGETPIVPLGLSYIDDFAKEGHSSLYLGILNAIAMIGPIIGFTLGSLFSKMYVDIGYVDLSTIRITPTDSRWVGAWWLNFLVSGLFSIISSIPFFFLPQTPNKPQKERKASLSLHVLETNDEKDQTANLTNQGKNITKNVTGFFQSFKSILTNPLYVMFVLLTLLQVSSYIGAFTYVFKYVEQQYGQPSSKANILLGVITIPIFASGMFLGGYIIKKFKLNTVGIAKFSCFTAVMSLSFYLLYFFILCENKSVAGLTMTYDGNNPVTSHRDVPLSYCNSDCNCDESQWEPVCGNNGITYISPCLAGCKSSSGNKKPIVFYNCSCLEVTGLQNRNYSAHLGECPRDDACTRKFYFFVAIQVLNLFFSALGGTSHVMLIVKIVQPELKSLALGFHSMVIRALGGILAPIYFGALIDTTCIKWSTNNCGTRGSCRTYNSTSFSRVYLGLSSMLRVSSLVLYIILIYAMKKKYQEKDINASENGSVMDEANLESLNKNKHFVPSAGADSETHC

[3] = Protein binding in Sprague-Dawley rat plasma assessed as free fraction at 3 mg/kg, po or 1 mg/kg, iv measured up to 24 hrs by LC-MS/MS analysis; type: ADME, organism-based
Bile salt export pump = Bile salt export pump (Homo sapiens, UniProt O95342); test: Inhibition of BSEP (unknown origin); type: ADME
[4] = Protein binding in CD-1 mouse plasma assessed as free fraction at 3 mg/kg, po or 1 mg/kg, iv measured up to 24 hrs by LC-MS/MS analysis; type: ADME, organism-based
[5] = Protein binding in human plasma assessed as free fraction at 3 mg/kg, po or 1 mg/kg, iv measured up to 24 hrs by LC-MS/MS analysis; type: ADME, organism-based

Sequence of Bile salt export pump (O95342 whole entry): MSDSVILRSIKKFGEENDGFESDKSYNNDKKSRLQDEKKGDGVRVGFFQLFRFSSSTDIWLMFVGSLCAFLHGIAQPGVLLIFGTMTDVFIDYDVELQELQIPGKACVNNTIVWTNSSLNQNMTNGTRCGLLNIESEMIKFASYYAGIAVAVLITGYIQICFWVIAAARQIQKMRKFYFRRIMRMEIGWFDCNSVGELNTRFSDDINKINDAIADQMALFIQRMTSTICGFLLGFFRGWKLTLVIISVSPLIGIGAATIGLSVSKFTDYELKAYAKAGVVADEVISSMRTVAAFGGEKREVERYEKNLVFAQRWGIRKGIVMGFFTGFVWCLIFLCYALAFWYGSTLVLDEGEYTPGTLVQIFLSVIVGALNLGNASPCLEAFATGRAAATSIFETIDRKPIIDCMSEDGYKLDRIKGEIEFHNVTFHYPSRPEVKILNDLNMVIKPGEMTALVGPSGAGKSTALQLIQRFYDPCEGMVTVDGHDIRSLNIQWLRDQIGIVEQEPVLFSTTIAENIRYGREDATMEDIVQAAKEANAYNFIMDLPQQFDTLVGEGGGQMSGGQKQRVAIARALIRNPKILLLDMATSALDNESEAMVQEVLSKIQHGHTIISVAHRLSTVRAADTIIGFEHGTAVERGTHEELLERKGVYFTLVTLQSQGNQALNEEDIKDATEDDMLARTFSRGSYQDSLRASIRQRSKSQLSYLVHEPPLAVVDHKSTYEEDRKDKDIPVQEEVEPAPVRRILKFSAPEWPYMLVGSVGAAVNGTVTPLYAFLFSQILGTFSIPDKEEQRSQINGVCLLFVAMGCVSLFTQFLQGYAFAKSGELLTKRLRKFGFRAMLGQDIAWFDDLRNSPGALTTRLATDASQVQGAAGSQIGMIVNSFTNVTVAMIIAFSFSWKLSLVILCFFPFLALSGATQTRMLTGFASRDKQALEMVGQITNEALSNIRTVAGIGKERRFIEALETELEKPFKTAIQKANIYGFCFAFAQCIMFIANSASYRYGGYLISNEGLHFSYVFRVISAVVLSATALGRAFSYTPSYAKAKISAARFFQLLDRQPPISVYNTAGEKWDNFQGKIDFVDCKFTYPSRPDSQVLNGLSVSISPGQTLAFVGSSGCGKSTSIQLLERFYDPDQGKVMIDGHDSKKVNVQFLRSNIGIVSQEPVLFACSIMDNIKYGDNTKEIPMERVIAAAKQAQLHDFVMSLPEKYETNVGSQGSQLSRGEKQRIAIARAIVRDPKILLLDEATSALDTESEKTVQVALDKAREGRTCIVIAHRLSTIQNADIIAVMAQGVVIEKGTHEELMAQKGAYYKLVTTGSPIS

| Drug uptake [1] [%] | IC50 [2] [µM] | fraction unbound at 24 h [3] | fraction unbound at 24 h [4] | fraction unbound at 24 h [5] | Compound | IC50 (Bile salt export pump) [µM] |
| --- | --- | --- | --- | --- | --- | --- |
| < 10 |  |  |  |  | CCCN(C)C(=O)OCc1c(-c2ccc(O[C@H]3CCC[C@H](C(=O)O[C@@H]4O[C@H](C(=O)O)[C@@H](O)[C@H](O)[C@H]4O)C3)c(C)n2)nnn1C |  |
|  | 9.2 | 0.025 | 0.083 | 0.025 | CN(C(=O)OCc1c(-c2ccc(O[C@H]3CCC[C@H](C(=O)O)C3)cn2)nnn1C)C1CCCC1 | 46.3 |
| < 10 |  |  |  |  | CCCNC(=O)OCc1c(-c2ccc(O[C@H]3CCC[C@H](C(=O)O)C3)c(C)n2)nnn1C |  |
|  | 35.4 |  |  |  | Cc1noc(-c2ccc(O[C@H]3CCC[C@H](C(=O)O)C3)nn2)c1COC(=O)N(C)C1CCCC1 (racemic) | > 50 |
